Test system: MOLM-13 cells
Test: MOLM-13 Cell Proliferation Assay (indicator of DHODH inhibition)
Type: cell-based
Settings: Homo sapiens, 72 Hours of culture, CellTiter-Glo, no uridine
Experimental: The following assay was conducted to measure proliferation of MOLM-13 cells in the presence of each compound studied. This assay was included as an indicator of DHODH inhibition, as growth of MOLM-13 cells is known to depend on synthesis of pyrimidines using the de novo pathway, which can be blocked by inhibition of DHODH. • 1. MOLM-13 cells were cultured in RPMI 1640 medium+10% Fetal Bovine Serum (FBS). Only low passage cells (<20) were used for the compound tests • 2. On day 1, Log-phase growing Molm-13 Cells were counted and diluted to 10^5 cells/mL in RPMI 1640 medium+10% FBS • 3. 100 μL of diluted MOLM-13 cells in 96 well white plates were seeded, for a final density of 10^4 cells/well. • 4. 0.5 μL of pre-diluted 200× compounds or DMSO control was added to each well. The final DMSO concentration was 0.5%. • 5. After 72 Hours of culture at 37° C., 5% CO2, the plates were taken out and cooled to RT, then 50 μL CellTiter-Glo® (Promega) was added, and the composition was mixed at RT for 10 minutes. • 6. The plates were then read by ViewLux (Speed-fast, Gain-High, Bining-1X, 5 seconds).

SMILES	IC50
Cc1nc(N2CCc3c([nH]c4cc(F)c(Cl)cc34)C2c2cccc(F)c2F)nc(C)c1C (stereo not shown) [Compound 171, 6-chloro-1-(2,3-difluorophenyl)-7-fluoro-2-(4,5,6-trimethylpyrimidin-2-yl)-2,3,4,9-tetrahydro-1H-pyrido[3,4-b]indole]	5 nM
Clc1ccc2[nH]c3c(c2c1)CCN(c1nccc(-c2ccccc2)n1)C3c1cnc(N2CCOCC2)nc1 (stereo not shown) [Compound 475, 6-chloro-1-[2-(morpholin-4-yl)pyrimidin-5-yl]-2-(4-phenylpyrimidin-2-yl)-2,3,4,9-tetrahydro-1H-pyrido[3,4-b]indole]	116 nM
Nc1ncc(C2c3[nH]c4ccc(Cl)c(F)c4c3CCN2c2ncc(F)cn2)cn1 (stereo not shown) [Compound 212, 5-[6-chloro-5-fluoro-2-(5-fluoropyrimidin-2-yl)-2,3,4,9-tetrahydro-1H-pyrido[3,4-b]indol-1-yl]pyrimidin-2-amine]	71 nM
Cc1nc(C)nc(N2CCc3c([nH]c4ccc(Cl)c(N)c34)C2c2cnc(N3CCOCC3)nc2)n1 (stereo not shown) [Compound 327, 6-chloro-2-(4,6-dimethyl-1,3,5-triazin-2-yl)-1-[2-(morpholin-4-yl)pyrimidin-5-yl]-2,3,4,9-tetrahydro-1H-pyrido[3,4-b]indol-5-amine]	31.9 nM
N#Cc1cc(C#N)nc(N2CCc3c([nH]c4cc(F)c(Cl)cc34)C2c2cccc(F)c2F)n1 (stereo not shown) [Compound 227, 2-[6-chloro-1-(2,3-difluorophenyl)-7-fluoro-1,3,4,9-tetrahydro-2H-pyrido[3,4-b]indol-2-yl]pyrimidine-4,6-dicarbonitrile]	16.4 nM
Cc1ccc(C2c3[nH]c4ccc(C)c(F)c4c3CCN2c2nccc(C(F)(F)F)n2)c(F)c1F (stereo not shown) [Compound 192, 1-(2,3-difluoro-4-methylphenyl)-5-fluoro-6-methyl-2-[4-(trifluoromethyl)pyrimidin-2-yl]-2,3,4,9-tetrahydro-1H-pyrido[3,4-b]indole]	2 nM
CC(C)c1ccc(C2c3[nH]c4cc(F)c(Cl)cc4c3CCN2c2nccc(Cl)n2)cc1 (stereo not shown) [Compound 53, 6-chloro-2-(4-chloropyrimidin-2-yl)-7-fluoro-1-[4-(propan-2-yl)phenyl]-2,3,4,9-tetrahydro-1H-pyrido[3,4-b]indole]	7.7 nM
FC(F)(F)c1nc(N2CCc3c([nH]c4ccc(Cl)cc34)C2c2ccc(N3CCOCC3)nc2)nc(C(F)(F)F)n1 (stereo not shown) [Compound 404, 2-[4,6-bis(trifluoromethyl)-1,3,5-triazin-2-yl]-6-chloro-1-[6-(morpholin-4-yl)pyridin-3-yl]-2,3,4,9-tetrahydro-1H-pyrido[3,4-b]indole]	0.4 nM

Further lines, results first:

IC50	SMILES
89.9 nM	Cc1ncc(C2c3[nH]c4cc(F)c(Cl)cc4c3CCN2c2ncc(F)cn2)cn1 (stereo not shown) [Compound 91, 6-chloro-7-fluoro-2-(5-fluoropyrimidin-2-yl)-1-(2-methylpyrimidin-5-yl)-2,3,4,9-tetrahydro-1H-pyrido[3,4-b]indole]
12.7 nM	Cc1ccc([C@H]2c3[nH]c4ccc(Cl)cc4c3CCN2c2ncc(F)cn2)cc1 [Compound 393, (1S)-6-chloro-2-(5-fluoropyrimidin-2-yl)-1-(4-methylphenyl)-2,3,4,9-tetrahydro-1H-pyrido[3,4-b]indole]
23.4 nM	Fc1cnc(N2CCc3c([nH]c4cc(F)c(Cl)cc34)C2c2cccc(F)c2F)nc1 (stereo not shown) [Compound 36, 6-chloro-1-(2,3-difluorophenyl)-7-fluoro-2-(5-fluoropyrimidin-2-yl)-2,3,4,9-tetrahydro-1H-pyrido[3,4-b]indole]
25.9 nM	Cc1ccc(C2c3[nH]c4ccc(Cl)cc4c3CCN2c2ncnc(C)n2)cc1 (stereo not shown) [Compound 322, 6-chloro-1-(4-methylphenyl)-2-(4-methyl-1,3,5-triazin-2-yl)-2,3,4,9-tetrahydro-1H-pyrido[3,4-b]indole]
0.9 nM	Cc1ccc([C@H]2c3[nH]c4ccc(Cl)cc4c3CCN2c2ncc(F)cn2)c(F)c1F [Compound 238, (1S)-6-chloro-1-(2,3-difluoro-4-methylphenyl)-2-(5-fluoropyrimidin-2-yl)-2,3,4,9-tetrahydro-1H-pyrido[3,4-b]indole]
